Measured values taken from patent US9096607B2, “Tumor necrosis factor inhibitors” (THE TRUSTEES OF THE UNIVERSITY OF PENNSYLVANIA, priority 2005, dated 2015).

Assays:
[1] = tested on: collagen induced arthritis; experiment: Collagen induced arthritis in mice; format: in vivo, mouse; conditions: DBA/1 mice
Protocol: Activity of compound I-9 was studied in a mouse collagen induced arthritis system, which is a model for human rheumatoid arthritis. Six to eight weeks old male DBA/1 mice were immunized by multiple intradermal injections of 100 μg chicken type II collagen (Sigma Chemical Co., St. Louis, Mo.) in 100 μl of 0.1 M acetic acid emulsified in an equal volume of complete Freund's adjuvant and were then challenged with the same antigen preparation i.p. on the 21st day. Animals were injected daily with the compound I-9 at different dosages (2-4 mg/kg/day) beginning on day 21 and animals were examined physically every other day in a blinded manner. In this model, disease typically develops 7-10 days after the second immunization, and the severity of disease can be determined by physical examination, joint histochemistry, or both techniques. […] Male DBA/1 mice (6-8-wk-old) were purchased from Jackson Laboratory (Bar Harbor, Me.) and housed in University of Pennsylvania Animal Care Facilities. Animals were maintained in accordance with guidelines of Institutional Animal Care and Use Committee (IACUC) of the University of Pennsylvania. For CIA induction, mice were immunized by multiple intradermal injections of 100 μg chicken type II collagen (Sigma Chemical Co., St. Louis, Mo.) in 100 μL of 0.1M acetic acid emulsified in an equal volume of complete Freund's adjuvant. Mice were challenged with the same antigen preparation i.p. at the 21st day. Mice were injected daily with the test compound at different dosage (2 and 4 mg/kg of body weight) from day 21. Disease develops 7-10 day after the second immunization. Mice were examined physically every other day in a blind manner. Their paws were scored individually as follows: 0=normal; 1=Erythema and mild swelling confined to the ankle joint or toes; 2=Erythema and mild swelling extending from the ankle to the midfoot or ankle joint; 3=Erythema and moderate swelling extending from the ankle to the metatarsal joints; and 4=Erythema and severe swelling encompass the ankle, foot, and digits. The maximum disease score per foot is 4, and the maximum disease score per mouse is 16. For histological examination of the joint, mice were killed at different time points, and their paws were collected and fixed in 10% formalin. The paws were then decalcified in hydrochloric acid, embedded in paraffin, sectioned, and stained with hematoxylin and eosin (H&E).

mutant TNF-R1 = biological target: T1, mutant TNF-R1 (Homo sapiens, UniProt P19438, F141E/Q111E); experiment: Isothermal titration calorimetry, binding to mutant TNF-R1 (82E, 112E); conditions: ITC, TNF-R1 mutated to 82E and 112E
T1 construct: The ectodomain of wild type TNF receptor 1 was obtained by PCR from pKP13; made in house
T1 sequence (P19438 30-211 Q111E/F141E limits assumed): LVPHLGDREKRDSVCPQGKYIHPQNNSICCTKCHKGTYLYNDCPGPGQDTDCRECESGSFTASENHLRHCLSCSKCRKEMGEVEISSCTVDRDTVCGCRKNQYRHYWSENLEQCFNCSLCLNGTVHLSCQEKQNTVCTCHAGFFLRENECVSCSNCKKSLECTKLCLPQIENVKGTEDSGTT
Text: The ectodomain of wild type TNF receptor 1 was obtained by PCR from pKP13 (as described in Beutler et al., Annu. Rev. Biochem. 57, 505-518 (1988)) with 5′ primer AAAAAACATATGTACCCCTCAGGGGTTATTGG (SEQ ID NO:2) and 3′ primer CCGCTCGAGTCAATGATGATG ATGATG ATGTGTGGTGCCTGAGTCCTCAG, (SEQ ID NO:3) and constructed into PET21 (Novagen, San Diego, Calif.) between Nde1 and XhoT, verified by sequencing. Mutant TNF receptor 1 was obtained from site-directed mutagenesis by using a QuikChange mutagenesis kit (Stratagene, La Jolla, Calif.). The plasmid was then transformed into Origami™ (DE3) (Novagen, San Diego, Calif.). The cells were grown until A600 was 0.6 and were induced by addition of 0.2 mM of IPTG. The cells were then induced for 3 h and harvested by centrifugation at 3500 rpm for 10 min. The wild type and mutant TNF-R1 were all expressed in the inclusion bodies of the cells and were extracted and refolded as described in Lin et al., Biotechniques 11, 748 (December 1991). […]
The binding thermodynamics of inhibitors to the TNF receptor was measured by isothermal titration calorimetry (ITC) using a high-precision VP-ITC titration calorimetric system (MicroCal Inc, Northampton, Mass.). […] Data were analyzed and fitted using the data analysis software supplied by MicroCal (Origin version 5.0).

CC(=O)Oc1ccc(C(C)(c2ccc(OC(C)=O)cc2)c2ccc(OC(C)=O)cc2)cc1 [Compound I-9, 1,1,1-Tris-(4-acetoxyphenyl)ethane]
clinical symptoms of arthritis ([1]; 2-4 mg/kg/day daily from day 21, vs untreated or control groups): dose dependent decrease | cartilage destruction ([1]; treated): prevented | infiltration, histological analysis of ankle joints ([1]; treated): markedly reduced | synovial tissue, histological analysis of ankle joints ([1]; treated): less synovial tissue | binding to the mutant receptor (mutant TNF-R1): no longer bound
